# Reference: patent US20240076347A1, “METHODS FOR PREVENTING FUNGAL INFECTIONS” (Cidara Therapeutics, Inc., priority 2016, published 2024)
# Where “and” joins values, the source holds several entries; their conditions need not be identical. Identical values can stand only once. Like-named read-outs stand apart in the source and are kept apart here. Numbered stars: 1 amine (or outer) side, 2 acyl side, 3 side chain; on linkers, the order of the positions; unused ones are H or OH. Bridge positions count the residues as written; N and C are the ends. Square brackets hold non-standard residues; d marks the D form. Peptide text beside a SMILES is read from it. * marks the point of attachment. ξ: configuration not given here. Orn(4R-OH,5R-OCH2CH2NMe3+) = C[N+](C)(C)CCO[C@@H](N[*:3])[C@H](O)C[C@H](N[*:1])C(=O)[*:2]; pTerphenylCO(4''-OnC5H11) = CCCCCOc1ccc(-c2ccc(-c3ccc(C(=O)*)cc3)cc2)cc1; hTyr(3S-OH,4S-OH) = N[C@H](C(=O)O)[C@H](O)[C@@H](O)c1ccc(O)cc1; X1 = C[C@H]1CN([*:1])C(C(=O)[*:2])C1O; Hyp = O=C(O)[C@@H]1C[C@@H](O)CN1; ξT = CC(O)C(N)C(=O)O
# Experiments:
# [1] = Pharmacokinetic profile in female rats, SC and IV; details: rat, in vivo
# Description: Pharmacokinetic Profile of CD101. The pharmacokinetic (PK) profile of CD101 in female rats (three per group) was characterized.
# [2] = Single-dose plasma pharmacokinetics in mice, IP; format: in vivo; details: IP doses of 1, 4, 16 and 64 mg/kg; for half-life: read-out: elimination half-life, range
# Procedure: Pharmacokinetics. […] Plasma from groups of three mice per time point (1, 3, 6, 12, 24, 48, and 72-h) was collected. The plasma drug concentrations were determined by liquid chromatography-tandem mass spectrometry. A noncompartmental model was used in the pharmacokinetic analysis. Elimination half-life was calculated by nonlinear least-squares technique. The area under the concentration-time curve (AUC) was calculated by the trapezoidal rule. Pharmacokinetic exposures for doses not directly measured in the PK study were estimated by linear extrapolation for higher and lower dose levels and by interpolation for dose levels within the dose range studied given the linear PK results. Protein binding was 99.2%.
# [3] = test system: Candida albicans clinical isolates; details: SENTRY surveillance (Pfaller, et al 2017); cited from earlier work
# C. glabrata = assay: In vitro susceptibility testing (CLSI M27-A3); format: cell-based, Candida glabrata; details: Nakaseomyces glabratus, 24 h
# Procedure: Strains. Ten clinical Candida strains were used for the in vivo treatment studies, including four C. albicans, three C. glabrata, and three C. parapsilosis strains (Table 18). This group was selected to encompass phenotypic variability in susceptibility to triazoles and echinocandins and based on similar fitness in the animal model as defined by the amount of growth in control animals over 24 h. The organisms were maintained, grown, and quantified on Sabouraud's dextrose agar (SDA) plates.
# In vitro susceptibility testing. All isolates were tested in accordance with the standards in CLSI document M27-A3. The MICs were determined visually after 24 h of incubation as the lowest concentration of drug that causes a significant diminution (≥50%) of growth compared to controls. MICs were determined on three separate occasions in duplicate.
# Candida auris = assay: Murine model of disseminated candidiasis (immunosuppressed CD-1 mice), treatment; format: in vivo; details: 20 mg/kg IP
# Procedure: Female 6-8 week old CD-1 mice were immunosuppressed with cyclophosphamide (200 mg/kg) 3 days prior to infection and 150 mg/kg 1 day post-infection. On the day of infection, mice were inoculated with 3×10^7 C. auris blastospores via the lateral tail vein. Mice were randomized into 5 groups (n=5 for colony forming units (CFU) and n=10 for survival): CD101 20 mg/kg administered by intraperitoneal (IP) injection, fluconazole 20 mg/kg administered per os (PO), amphotericin B 0.3 mg/kg IP, and a vehicle control. Treatments were administered 2 hours post-infection (Day 1) and again on Day 4 of the study for a total of 2 doses. Mice were monitored daily and a survival curve was generated. CFU groups were sacrificed on Day 8 of the study. One kidney was removed from each mouse, homogenized, plated on potato dextrose agar (PDA), and incubated at 35° C. for 2 days to determine CFU. The remaining survival mice were monitored until the end of the study (Day 14).
# Pneumocystis murina = Pneumocystis murina mouse prophylaxis study, lung nuclei and asci counts; format: in vivo
# Procedure: C3H/HeN mice (Charles River) were infected with P. murina by intranasal inoculation of P. murina organisms at 2×10^6/50 μl from a liquid nitrogen repository. Prior to inoculation, the P. murina were pre-incubated overnight in RPMI 1640 medium supplemented with calf serum and antibiotics to eliminate any bacterial contamination. The immune systems of the mice were suppressed by the addition of dexamethasone at 4 μ[…] to acidified drinking water (sulfuric acid at 1 ml/liter). Acidification is used to prevent secondary microbial infections. The mice were divided into a negative control group (control steroid-C/S), positive control group (trimethoprim/sulfamethoxazole-TMP/SMX) and treatment groups. Drugs to be tested were administered intraperitoneally (IP) on a mg/kg/d basis; dose, route, and frequency of administration varied depending on the agent being tested. […] Immune suppression and treatment continued for the entire 6 week study. At that time, the mice were euthanized by CO2 and lungs processed for analysis by homogenization. Slides were made from the lung homogenates at different dilutions and stained with Diff-Quik to quantify the trophic forms and cresyl echt violet to quantify the asci. Efficacy is based on the reduction of organism burden between the treatment groups and the negative control group was determined by microscopic evaluation. The nuclei and asci counts for each lung were log transformed and statistical analysis was determined by the analysis of variance (ANOVA); individual groups were compared by the Student-Newman-Keuls t test for multiple comparisons using GraphPad Prism.
# [4] = Plasma and lung epithelial lining fluid (ELF) pharmacokinetics in ICR mice; format: in vivo; details: 20 mg/kg IP; for Kp: ip, 20 mg/kg
# Procedure: At pre-dose, 1, 3, 6, 12, 24, 48, and 72 hours post-dose, 3 mice/timepoint were anesthetized/euthanized for blood collection (plasma) and bronchoalveolar lavage fluid (BALF) collection with 2×0.5 mL flushes of saline. Urea levels for plasma/BALF normalization for the volume of lung epithelial lining fluid (ELF) calculation were quantified using a commercially-available spectrophotometry-based assay. CD101 concentrations in plasma/BALF samples were measured by LC with electrospray ionization tandem mass spectrometric (LC-MS/MS) detection.
# Urea for plasma/BALF normalization for ELF volume were quantified using spectrophotometry. CD101 concentrations in plasma/BALF samples were measured by LC-MS/MS. Total plasma concentrations were corrected for protein binding (99.2%).
# A. fumigatus ATCC 13073 = assay: Disseminated aspergillosis in neutropenic ICR mice (Example 14), treatment and prophylaxis; format: in vivo, Aspergillus fumigatus
# Procedure: Disseminated aspergillosis: ICR mice (6/grp) were made neutropenic by cyclophosphamide on Days −3 (270 mg/kg), +1 and +4 (90 mg/kg). IV infection with A. fumigatus ATCC 13073 (10^4 CFU/mouse) on Day 0. […] Survival monitored for a 10 days. Same model was used for prophylaxis except CD101 was dosed on Days −1, −3 or −5.
smiles,measurement,setting,value
"CCCCCOc1ccc(-c2ccc(-c3ccc(C(=O)N[C@H]4C[C@@H](O)[C@@H](OCC[N+](C)(C)C)NC(=O)C5C(O)[C@@H](C)CN5C(=O)[C@H]([C@@H](C)O)NC(=O)[C@H]([C@H](O)[C@@H](O)c5ccc(O)cc5)NC(=O)[C@@H]5C[C@@H](O)CN5C(=O)C(C(C)O)NC4=O)cc3)cc2)cc1 (stereo partly drawn) [CD101] ({pTerphenylCO(4''-OnC5H11)}-[Orn(4R-OH,5R-OCH2CH2NMe3+)][ξT][Hyp][hTyr(3S-OH,4S-OH)]T[X1]; lactam 1-C)",Tmax,[1]; SC,8 to 24 h
same,bioavailability,"[1]; sc, 10 mg/kg",97%
same,half-life,"[1]; subcutaneous, 10 mg/kg, read-out: t½ (converted)",48 h
same,AUC,"[2]; ICR Swiss/CD1, mouse, read-out: AUC0-, range",93.2 to 40500 µg·h/mL
same,Cmax,"[2]; ICR Swiss/CD1, mouse, read-out: Peak (Cmax) levels, range",2600 to 76700 ng/mL
same,half-life,"[2]; ICR Swiss/CD1, mouse",28 to 41 h
same,half-life,[2]; mouse,29 to 41 h
same,MIC90,[3],0.06 µg/mL
same,MIC,C. glabrata; strain 5592,0.125 µg/mL
same,MIC,C. glabrata; strain 10956 (FKS2_HS1_F659V),1 µg/mL
same,MIC,C. glabrata; strain 35315,0.5 µg/mL
same,average reduction in kidney CFU,"Candida auris; 2 doses (Day 1, Day 4), Day 8, compared to fluconazole, amphotericin B and vehicle groups",3 log
same,percent survival at the end of the study,"Candida auris; 2 doses, Day 14",80%
same,asci levels (lung),Pneumocystis murina; 5 CD101 treatment groups vs positive control TMP/SMX,no difference in efficacy
same,asci levels (lung),"Pneumocystis murina; IP, all CD101 treatment groups, 6 weeks, vs negative control",statistically significant reduction in asci levels
same,nuclei levels (lung),"Pneumocystis murina; IP, all dose levels except 0.2 mg/kg/1×/week, 6 weeks, vs negative control",statistically significant reduction in nuclei levels
same,human equivalent doses preventing Pneumocystis pneumonia in mice,Pneumocystis murina; mice,< 50 mg
same,nuclei levels (lung),"Pneumocystis murina; three of the CD101 treatment groups, 6 weeks",equally as efficacious as the positive control TMP/SMX
same,mean maximum ELF concentration,[4],15.1 µg/mL
same,mean maximum plasma concentration,[4],30.1 µg/mL
same,time of maximum ELF concentration,[4],6 h and 4 h
same,time of maximum plasma concentration,[4]; first collection timepoint,1 h
same,concentration at 72 h,"[4]; ICR, mouse, lung epithelial lining fluid (ELF), intraperitoneal, at 72 h",4000 ng/mL
same,Kp,"[4]; ICR, mouse, lung epithelial lining fluid (ELF), free-drug (protein binding 99.2%), read-out: ELF/Plasma AUC ratio",100
same,Kp,"[4]; ICR, mouse, lung epithelial lining fluid (ELF), read-out: AUC exposure ratios of ELF/plasma",0.8 to 0.95
same,Kp,"[4]; ICR, mouse, lung epithelial lining fluid (ELF), total-drug, read-out: ELF/Plasma AUC ratio",0.8
same,half-life,"[4]; ICR, mouse, lung epithelial lining fluid (ELF), read-out: ELF half-life (converted)",31.9 h
same,AUC(0-t),"[4]; ICR, mouse, lung epithelial lining fluid (ELF), read-out: mean ELF AUC0-72",606 µg·h/mL
same,AUC(0-inf),"[4]; ICR, mouse, lung epithelial lining fluid (ELF), read-out: mean ELF AUCinf",802 µg·h/mL
same,AUC(0-t),"[4]; ICR, mouse, plasma, read-out: mean plasma AUC0-72",762 µg·h/mL
same,AUC(0-inf),"[4]; ICR, mouse, plasma, read-out: mean plasma AUCinf",848 µg·h/mL
same,half-life,"[4]; ICR, mouse, plasma, read-out: plasma half-life (converted)",21.1 h
same,survival,A. fumigatus ATCC 13073; prophylaxis,100%
same,survival,"A. fumigatus ATCC 13073; prophylaxis, single 5 mg/kg given up to 5 days prior to infection",improved survival depending on day given
same,survival,"A. fumigatus ATCC 13073; treatment, IV/IP at 0.2, 1 or 5 mg/kg BID×5 d, vs vehicle",significant increase in survival compared to vehicle
same,survival,"A. fumigatus ATCC 13073; treatment, single 2 mg/kg vs 0.2 mg/kg BID×5 d",Survival was comparable
